A word on the Ki: it is the equilibrium dissociation constant of an inhibitor or competing ligand from its target. Read a high Ki as a looser hold on the target. The IC50 is the concentration needed to halve the response being measured. Low readings indicate greater potency in that assay, high ones weaker potency in that assay. In general, Kd refers to the concentration at which binding is half-saturated. Low values mean tighter binding, high ones weaker binding.

The values that follow come from ChEMBL document CHEMBL5212743, “Selectivity Literature for EUbOPEN Chemogenomics Library wave 3” (2023).

The target of experiment [1] is T1, Sodium-dependent dopamine transporter (Homo sapiens, UniProt Q01959). In words: (§1) Selectivity interaction (Eurofins-Panlabs radioligand binding assay) EUB0000716a SLC6A3.
T1 sequence (Q01959 whole entry): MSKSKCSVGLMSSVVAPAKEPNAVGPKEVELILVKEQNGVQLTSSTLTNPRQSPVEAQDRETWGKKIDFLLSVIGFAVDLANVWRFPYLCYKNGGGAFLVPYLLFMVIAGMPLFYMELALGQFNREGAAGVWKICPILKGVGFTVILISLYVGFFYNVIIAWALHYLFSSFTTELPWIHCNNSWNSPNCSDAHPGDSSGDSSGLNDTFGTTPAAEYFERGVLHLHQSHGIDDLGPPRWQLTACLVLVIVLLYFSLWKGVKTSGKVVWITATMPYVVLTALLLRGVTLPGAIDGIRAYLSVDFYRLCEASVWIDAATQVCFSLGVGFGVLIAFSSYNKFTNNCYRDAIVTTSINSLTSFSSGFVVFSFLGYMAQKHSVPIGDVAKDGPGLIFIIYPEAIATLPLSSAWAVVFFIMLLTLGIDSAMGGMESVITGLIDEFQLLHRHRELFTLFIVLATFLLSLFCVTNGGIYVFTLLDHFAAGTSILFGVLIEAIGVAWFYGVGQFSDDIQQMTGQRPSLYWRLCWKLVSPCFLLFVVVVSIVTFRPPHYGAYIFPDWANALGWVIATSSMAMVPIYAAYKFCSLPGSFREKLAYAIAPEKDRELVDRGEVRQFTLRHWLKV
For experiment [2], the target named is cGMP-dependent protein kinase 1 (Homo sapiens) (UniProt Q13976). In words: Selectivity interaction (KinomeScan (DiscoverX)) EUB0000716a PRKG1. To be noted: at 100 nM.
cGMP-dependent protein kinase 1 (Homo sapiens), sequence (Q13976 whole entry): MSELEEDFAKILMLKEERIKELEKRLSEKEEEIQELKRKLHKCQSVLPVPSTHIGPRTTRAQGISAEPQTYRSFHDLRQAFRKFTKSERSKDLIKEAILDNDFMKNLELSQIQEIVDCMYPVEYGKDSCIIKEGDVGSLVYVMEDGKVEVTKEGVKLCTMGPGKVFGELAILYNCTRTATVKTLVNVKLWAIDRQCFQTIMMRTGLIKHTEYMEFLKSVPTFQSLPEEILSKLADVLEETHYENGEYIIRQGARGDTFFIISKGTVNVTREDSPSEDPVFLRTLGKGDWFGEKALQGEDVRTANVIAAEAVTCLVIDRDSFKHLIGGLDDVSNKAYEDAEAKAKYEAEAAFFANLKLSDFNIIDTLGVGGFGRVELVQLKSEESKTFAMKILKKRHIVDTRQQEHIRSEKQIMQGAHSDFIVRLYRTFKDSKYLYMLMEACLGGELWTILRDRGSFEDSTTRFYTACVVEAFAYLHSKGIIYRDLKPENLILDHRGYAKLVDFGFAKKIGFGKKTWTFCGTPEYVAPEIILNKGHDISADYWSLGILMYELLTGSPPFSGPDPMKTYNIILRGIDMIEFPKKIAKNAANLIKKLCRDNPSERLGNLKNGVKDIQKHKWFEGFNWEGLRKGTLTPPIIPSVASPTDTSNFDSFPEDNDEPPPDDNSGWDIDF
Experiment [3] addresses T1, Sodium-dependent dopamine transporter. The description is as §1. The source holds these as a separate data set.
Experiment [4] has as its target cAMP-dependent protein kinase catalytic subunit alpha (Homo sapiens, UniProt P17612). In words: Selectivity interaction (KinomeScan (DiscoverX)) EUB0000716a PRKACA. As to conditions: at 100 nM.
Experiment [5] addresses T2, Serine/threonine-protein kinase LATS1 (Homo sapiens) (UniProt O95835).
T2 sequence (whole entry): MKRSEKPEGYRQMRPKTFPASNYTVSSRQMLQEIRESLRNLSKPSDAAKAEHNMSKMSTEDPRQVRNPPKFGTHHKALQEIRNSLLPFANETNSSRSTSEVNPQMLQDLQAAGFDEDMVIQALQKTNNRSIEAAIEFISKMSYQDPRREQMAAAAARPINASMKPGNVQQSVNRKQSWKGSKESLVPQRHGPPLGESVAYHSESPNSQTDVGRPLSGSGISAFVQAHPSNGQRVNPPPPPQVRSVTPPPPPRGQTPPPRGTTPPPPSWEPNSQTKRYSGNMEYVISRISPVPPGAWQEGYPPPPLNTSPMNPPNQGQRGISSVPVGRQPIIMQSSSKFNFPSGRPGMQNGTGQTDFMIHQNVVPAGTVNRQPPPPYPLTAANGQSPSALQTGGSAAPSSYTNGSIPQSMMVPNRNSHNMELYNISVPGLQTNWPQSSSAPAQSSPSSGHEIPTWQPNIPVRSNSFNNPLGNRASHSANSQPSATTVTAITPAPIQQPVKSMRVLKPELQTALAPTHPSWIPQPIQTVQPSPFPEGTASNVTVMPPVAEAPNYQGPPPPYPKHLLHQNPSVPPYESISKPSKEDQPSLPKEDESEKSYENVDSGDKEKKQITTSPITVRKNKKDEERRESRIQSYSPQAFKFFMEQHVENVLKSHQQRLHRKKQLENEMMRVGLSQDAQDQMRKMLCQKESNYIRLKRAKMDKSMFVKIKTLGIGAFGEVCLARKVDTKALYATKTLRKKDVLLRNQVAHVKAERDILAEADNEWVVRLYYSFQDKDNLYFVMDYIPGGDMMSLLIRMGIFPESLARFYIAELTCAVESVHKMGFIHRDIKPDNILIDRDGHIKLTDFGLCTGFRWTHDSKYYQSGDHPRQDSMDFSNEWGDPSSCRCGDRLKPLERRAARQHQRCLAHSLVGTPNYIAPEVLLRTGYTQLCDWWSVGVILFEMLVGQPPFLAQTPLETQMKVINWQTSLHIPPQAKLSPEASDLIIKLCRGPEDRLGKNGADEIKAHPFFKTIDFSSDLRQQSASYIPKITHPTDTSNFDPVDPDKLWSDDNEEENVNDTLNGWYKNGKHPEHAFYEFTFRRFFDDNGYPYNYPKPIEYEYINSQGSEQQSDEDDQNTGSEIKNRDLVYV
In words: Selectivity interaction (KinomeScan (DiscoverX)) EUB0000716a LATS1. To be noted: at 100 nM.

Experiment [6] deals with cAMP-dependent protein kinase catalytic subunit beta (Homo sapiens) (UniProt P22694). The experiment in a line: Selectivity interaction (KinomeScan (DiscoverX)) EUB0000716a PRKACB. To be noted: at 100 nM.
Experiment [7] concerns the target T3, Serine/threonine-protein kinase LATS2 (Homo sapiens) (UniProt Q9NRM7).
T3 sequence (whole entry): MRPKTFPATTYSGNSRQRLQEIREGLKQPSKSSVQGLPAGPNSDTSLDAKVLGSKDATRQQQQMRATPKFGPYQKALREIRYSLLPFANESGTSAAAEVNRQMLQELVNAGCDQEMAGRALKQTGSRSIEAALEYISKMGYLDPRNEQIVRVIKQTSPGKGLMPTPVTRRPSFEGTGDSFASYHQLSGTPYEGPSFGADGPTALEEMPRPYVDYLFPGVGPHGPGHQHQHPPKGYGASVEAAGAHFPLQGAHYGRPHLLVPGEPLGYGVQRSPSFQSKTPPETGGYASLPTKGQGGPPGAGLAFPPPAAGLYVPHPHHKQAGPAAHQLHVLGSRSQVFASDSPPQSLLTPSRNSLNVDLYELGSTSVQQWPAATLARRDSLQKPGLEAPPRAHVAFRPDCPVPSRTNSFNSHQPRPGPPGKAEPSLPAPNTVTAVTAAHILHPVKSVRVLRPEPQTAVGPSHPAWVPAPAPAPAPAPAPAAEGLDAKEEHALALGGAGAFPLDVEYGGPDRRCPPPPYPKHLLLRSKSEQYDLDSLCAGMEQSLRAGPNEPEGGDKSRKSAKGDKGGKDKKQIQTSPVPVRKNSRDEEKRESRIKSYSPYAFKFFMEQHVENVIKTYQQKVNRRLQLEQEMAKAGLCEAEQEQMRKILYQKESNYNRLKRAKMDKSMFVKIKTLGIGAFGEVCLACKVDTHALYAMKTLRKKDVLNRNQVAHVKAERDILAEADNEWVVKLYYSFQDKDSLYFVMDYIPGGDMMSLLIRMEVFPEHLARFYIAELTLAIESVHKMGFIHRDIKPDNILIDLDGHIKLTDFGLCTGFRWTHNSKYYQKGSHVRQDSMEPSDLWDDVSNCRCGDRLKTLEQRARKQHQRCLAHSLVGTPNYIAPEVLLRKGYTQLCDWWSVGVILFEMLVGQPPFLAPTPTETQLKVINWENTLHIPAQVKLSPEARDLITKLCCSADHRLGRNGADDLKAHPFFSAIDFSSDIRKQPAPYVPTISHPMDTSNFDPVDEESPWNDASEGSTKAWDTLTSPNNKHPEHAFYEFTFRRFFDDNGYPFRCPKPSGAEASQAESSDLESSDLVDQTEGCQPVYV
In words: Selectivity interaction (KinomeScan (DiscoverX)) EUB0000716a LATS2. As to conditions: at 100 nM.

The target of experiment [8] is T4, Bromodomain-containing protein 4 (Homo sapiens, UniProt O60885). The experiment in a line: (§2) Selectivity interaction (TR-FRET assay) EUB0000191c BRD4. A general note: TR-FRET usually uses a lanthanide donor and a delayed reading to cut background.
Experiment [9] addresses Transcription initiation factor TFIID subunit 1-like (Homo sapiens) (UniProt Q8IZX4). In words: Selectivity interaction (BROMOscan (DiscoverX)) EUB0000191c TAF1L. To be noted: at 100 nM.
A further experiment addresses CREB-binding protein (Homo sapiens, UniProt Q92793). In words: Selectivity interaction (BROMOscan (DiscoverX)) EUB0000191c CREBBP. To be noted: at 100 nM.
Experiment [10] has as its target Histone acetyltransferase p300 (Homo sapiens) (UniProt Q09472). In words: Selectivity interaction (Bromodomain panel (DSF assay)) EUB0000191c EP300.
For experiment [11], the target named is cGMP-dependent 3',5'-cyclic phosphodiesterase (Homo sapiens) (UniProt O00408). The experiment in a line: Selectivity interaction (CEREP panel (LeadProfilingScreen Eurofins, panel of receptors, ion channels, and other enzymes)) EUB0000191c PDE2A. As to conditions: at 10 µM.
cGMP-dependent 3',5'-cyclic phosphodiesterase (Homo sapiens), sequence (O00408 whole entry): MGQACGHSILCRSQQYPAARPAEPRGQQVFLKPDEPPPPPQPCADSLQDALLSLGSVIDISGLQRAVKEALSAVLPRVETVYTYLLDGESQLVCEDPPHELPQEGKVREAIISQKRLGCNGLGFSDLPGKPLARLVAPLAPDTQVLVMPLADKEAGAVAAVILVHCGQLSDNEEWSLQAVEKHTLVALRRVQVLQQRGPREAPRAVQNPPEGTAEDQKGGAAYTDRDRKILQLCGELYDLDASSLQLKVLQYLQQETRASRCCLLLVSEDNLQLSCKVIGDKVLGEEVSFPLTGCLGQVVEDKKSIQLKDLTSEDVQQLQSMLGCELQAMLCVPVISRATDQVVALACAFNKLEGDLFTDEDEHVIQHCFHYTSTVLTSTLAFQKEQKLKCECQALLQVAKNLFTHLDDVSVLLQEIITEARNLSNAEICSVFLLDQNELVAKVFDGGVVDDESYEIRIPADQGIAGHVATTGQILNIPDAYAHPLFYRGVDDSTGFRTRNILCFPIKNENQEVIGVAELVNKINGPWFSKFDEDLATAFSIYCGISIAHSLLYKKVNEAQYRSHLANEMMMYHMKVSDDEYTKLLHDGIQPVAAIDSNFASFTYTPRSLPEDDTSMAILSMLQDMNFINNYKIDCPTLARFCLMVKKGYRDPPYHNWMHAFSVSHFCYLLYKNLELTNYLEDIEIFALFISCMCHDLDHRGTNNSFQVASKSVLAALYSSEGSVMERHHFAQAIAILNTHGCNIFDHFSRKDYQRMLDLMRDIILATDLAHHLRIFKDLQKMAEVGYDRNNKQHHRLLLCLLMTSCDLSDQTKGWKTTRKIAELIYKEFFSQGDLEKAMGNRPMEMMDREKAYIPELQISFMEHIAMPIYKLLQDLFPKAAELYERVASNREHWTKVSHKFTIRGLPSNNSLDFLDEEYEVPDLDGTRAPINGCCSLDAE
For experiment [12], the target named is T5, Gamma-aminobutyric acid receptor subunit alpha-1 (Homo sapiens) (UniProt P14867).
T5 sequence (whole entry): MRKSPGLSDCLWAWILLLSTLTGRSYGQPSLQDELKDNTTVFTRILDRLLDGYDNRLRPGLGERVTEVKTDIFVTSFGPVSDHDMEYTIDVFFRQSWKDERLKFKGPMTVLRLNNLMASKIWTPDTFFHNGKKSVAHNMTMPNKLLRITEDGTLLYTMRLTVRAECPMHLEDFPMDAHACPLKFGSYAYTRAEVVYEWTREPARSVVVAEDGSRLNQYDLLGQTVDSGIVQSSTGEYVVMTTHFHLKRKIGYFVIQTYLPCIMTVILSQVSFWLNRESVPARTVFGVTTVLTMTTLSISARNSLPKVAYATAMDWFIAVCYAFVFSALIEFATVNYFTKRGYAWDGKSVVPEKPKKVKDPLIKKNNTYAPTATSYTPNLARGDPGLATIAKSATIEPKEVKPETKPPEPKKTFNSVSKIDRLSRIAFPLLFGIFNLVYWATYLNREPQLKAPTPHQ
In words: Selectivity interaction (CEREP panel (LeadProfilingScreen Eurofins, panel of receptors, ion channels, and other enzymes)) EUB0000191c GABRA1. As to conditions: at 10 µM.

The target of experiment [13] is T6, Bromodomain-containing protein 7 (Homo sapiens) (UniProt Q9NPI1).
T6 sequence (whole entry): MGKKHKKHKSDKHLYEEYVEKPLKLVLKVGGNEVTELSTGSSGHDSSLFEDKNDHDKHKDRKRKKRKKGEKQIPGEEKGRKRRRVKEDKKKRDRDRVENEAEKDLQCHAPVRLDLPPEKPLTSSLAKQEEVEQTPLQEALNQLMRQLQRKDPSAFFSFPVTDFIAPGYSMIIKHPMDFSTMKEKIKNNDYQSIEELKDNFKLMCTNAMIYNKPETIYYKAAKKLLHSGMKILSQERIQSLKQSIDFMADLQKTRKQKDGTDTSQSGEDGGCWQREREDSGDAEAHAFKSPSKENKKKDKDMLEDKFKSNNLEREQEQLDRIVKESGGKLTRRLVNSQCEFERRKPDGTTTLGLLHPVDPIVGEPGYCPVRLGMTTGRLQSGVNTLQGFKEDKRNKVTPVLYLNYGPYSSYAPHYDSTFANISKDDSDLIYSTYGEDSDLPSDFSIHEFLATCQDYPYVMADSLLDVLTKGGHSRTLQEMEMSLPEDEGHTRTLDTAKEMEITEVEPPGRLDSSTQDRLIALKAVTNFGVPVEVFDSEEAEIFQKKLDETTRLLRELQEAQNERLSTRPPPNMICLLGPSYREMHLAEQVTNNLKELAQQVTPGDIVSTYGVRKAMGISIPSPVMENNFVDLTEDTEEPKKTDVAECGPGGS
The experiment in a line: Selectivity interaction (Bromodomain panel (DSF assay)) EUB0000191c BRD7. A general note: In DSF a fluorescence change marks the thermal transition of the protein.

Experiment [14] deals with T7, Chromatin remodeling regulator CECR2 (Homo sapiens, UniProt Q9BXF3). In words: Selectivity interaction (Bromodomain panel (DSF assay)) EUB0000191c CECR2.
Target sequence in this assay (Q9BXF3 whole entry, looked up): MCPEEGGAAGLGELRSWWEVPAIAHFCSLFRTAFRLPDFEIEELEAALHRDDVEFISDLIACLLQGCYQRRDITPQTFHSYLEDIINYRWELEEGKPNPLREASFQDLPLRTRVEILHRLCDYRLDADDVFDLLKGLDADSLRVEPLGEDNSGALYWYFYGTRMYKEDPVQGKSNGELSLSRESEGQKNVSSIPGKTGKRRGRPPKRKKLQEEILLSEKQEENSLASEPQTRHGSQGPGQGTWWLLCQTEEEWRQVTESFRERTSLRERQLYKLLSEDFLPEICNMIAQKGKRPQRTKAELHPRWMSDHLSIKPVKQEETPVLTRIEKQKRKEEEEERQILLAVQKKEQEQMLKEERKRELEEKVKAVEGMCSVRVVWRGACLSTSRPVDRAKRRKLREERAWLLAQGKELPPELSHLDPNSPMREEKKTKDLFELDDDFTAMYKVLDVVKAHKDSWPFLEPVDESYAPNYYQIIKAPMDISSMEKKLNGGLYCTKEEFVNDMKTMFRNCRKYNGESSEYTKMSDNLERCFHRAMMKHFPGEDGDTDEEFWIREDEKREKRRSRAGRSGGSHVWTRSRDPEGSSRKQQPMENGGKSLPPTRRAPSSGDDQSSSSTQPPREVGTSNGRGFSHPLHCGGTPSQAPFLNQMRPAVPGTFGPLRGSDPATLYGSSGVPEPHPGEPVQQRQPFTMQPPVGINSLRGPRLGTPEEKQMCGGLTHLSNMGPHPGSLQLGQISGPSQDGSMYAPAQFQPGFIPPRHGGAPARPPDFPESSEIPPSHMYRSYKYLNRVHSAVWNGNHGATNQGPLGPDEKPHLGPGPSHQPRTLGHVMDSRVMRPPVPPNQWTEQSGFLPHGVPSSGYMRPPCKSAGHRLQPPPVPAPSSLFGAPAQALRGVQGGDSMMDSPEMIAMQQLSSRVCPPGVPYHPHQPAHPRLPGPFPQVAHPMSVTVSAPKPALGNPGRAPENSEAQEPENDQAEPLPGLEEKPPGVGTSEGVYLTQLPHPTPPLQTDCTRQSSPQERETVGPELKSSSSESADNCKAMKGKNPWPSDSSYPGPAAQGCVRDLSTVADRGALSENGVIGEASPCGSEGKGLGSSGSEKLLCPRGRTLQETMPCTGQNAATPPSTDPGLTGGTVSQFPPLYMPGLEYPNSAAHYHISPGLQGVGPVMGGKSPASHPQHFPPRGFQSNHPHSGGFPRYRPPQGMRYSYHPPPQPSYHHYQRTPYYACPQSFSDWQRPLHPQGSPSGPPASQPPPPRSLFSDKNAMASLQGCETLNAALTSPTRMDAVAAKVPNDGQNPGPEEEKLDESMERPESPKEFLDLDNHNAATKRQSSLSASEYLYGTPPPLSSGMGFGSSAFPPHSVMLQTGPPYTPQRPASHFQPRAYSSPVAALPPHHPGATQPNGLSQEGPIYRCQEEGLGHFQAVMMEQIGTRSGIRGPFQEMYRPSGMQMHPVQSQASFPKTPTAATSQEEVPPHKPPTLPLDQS
For experiment [15], the target named is T8, Adenosine receptor A1 (Homo sapiens) (UniProt P30542).
T8 sequence (whole entry): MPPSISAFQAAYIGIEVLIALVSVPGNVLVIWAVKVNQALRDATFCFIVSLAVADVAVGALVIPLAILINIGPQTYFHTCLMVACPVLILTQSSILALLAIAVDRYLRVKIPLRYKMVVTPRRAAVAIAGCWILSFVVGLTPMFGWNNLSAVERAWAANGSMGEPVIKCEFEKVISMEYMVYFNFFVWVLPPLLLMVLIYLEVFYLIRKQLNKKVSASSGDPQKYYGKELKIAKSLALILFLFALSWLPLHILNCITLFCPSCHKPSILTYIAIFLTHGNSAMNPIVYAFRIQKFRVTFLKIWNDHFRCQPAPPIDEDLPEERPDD
The experiment in a line: Selectivity interaction (CEREP panel (LeadProfilingScreen Eurofins, panel of receptors, ion channels, and other enzymes)) EUB0000191c ADORA1. As to conditions: at 10 µM.

In experiment [16] the target is T4, Bromodomain-containing protein 4. Described as §2. This is another data set of the same source.
Experiment [17] deals with T7, Chromatin remodeling regulator CECR2. The experiment in a line: Selectivity interaction (ITC) EUB0000191c CECR2.
Target sequence in this assay (Q9BXF3 whole entry): as the sequence (Q9BXF3 whole entry, looked up) above
For experiment [18], the target named is cGMP-specific 3',5'-cyclic phosphodiesterase (Homo sapiens) (UniProt O76074). The experiment in a line: Selectivity interaction (CEREP panel (LeadProfilingScreen Eurofins, panel of receptors, ion channels, and other enzymes)) EUB0000191c PDE5A. As to conditions: at 10 µM.

SMILES strings stand for the structures.

In the case of `Cc1c[nH]c2nccc(Oc3c(F)cc(Nc4cc(Cl)nc(N)n4)cc3F)c12` [BAY-549], the figures for the Ki in [1] and in experiment [3] were 39 nM and 27 nM, respectively. The % of control amounted to 49% in experiment [2]; 28% in experiment [4]; 42% in [5]; 36% in experiment [6]; 0.7% in experiment [7].

As to `Cc1cc2c(cc1N1C(=O)c3cccc4c(CCCO)ccc(c34)C1=O)n(C)c(=O)n2C`, the half-maximal inhibitory concentration (IC50) in [8] was more than 15000 nM; in experiment [16] it was more than 20000 nM. The % of control is 0.7% in experiment [9]; 30% at CREB-binding protein; 49% in experiment [11]; 23% in experiment [12]; 48% in [15]; 2% in experiment [18]. For the same molecule, the dTm is 3.5 K in experiment [10], 2.3 K in experiment [13] and 3.5 K in experiment [14]. This molecule also yielded a Kd in experiment [17] of 1390 nM.
